Data on 8 molecules can be found in patent US10689429B2, “Double-acylated GLP-1 compounds” (Novo Nordisk A/S, priority 2014, dated 2020).

Where two headings read alike, the source gives them in different places. *1 amine or outer side, *2 acyl side, *3 side chain or, on linkers, in order; H or OH if unused. Where a SMILES comes first, the peptide text is derived from it. Where no end group is shown, it is not given here. Side-chain parts run from the residue outwards. [ ]: non-standard residue; d: D form. The star is where a group is joined. Undecanoyl(11-OPh(4-COOH)) = O=C(O)c1ccc(OCCCCCCCCCCC(=O)*)cc1; Decanoyl(10-O(3-COOH-Ph)) = O=C(O)c1cccc(OCCCCCCCCCC(=O)*)c1; γGlu = O=C(O)[C@H](CCC(=O)[*:2])N[*:1]; AEEA = NCCOCCOCC(=O)O; Aib = CC(C)(N)C(=O)O

The target in assay [1] is T1, human GLP-1 receptor (Homo sapiens, UniProt P43220).
T1 construct: expressed in transfected cells; host or cells: membranes from BHK cells, parent line BHKTS13, clone FCW467-12A
Put plainly: In vitro potency, CRE luciferase reporter gene assay in BHK cells expressing the human GLP-1 receptor.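 Further: firefly luciferase luminescence read after 3 h incubation at 37 °C, compounds tested in an eight-point series from 0.01 pM to 100 nM.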 In kind it is cell-based. To be noted: average of duplicates.
Method: The in vitro potency is the measure of human GLP-1 receptor activation in a whole cell assay.
In vitro potency was determined by measuring the response of the human GLP-1 receptor in a reporter gene assay. The assay was performed in a stably transfected BHK cell line that expresses the human GLP-1 receptor and contains the DNA for the cAMP response element (CRE) coupled to a promoter and the gene for firefly luciferase (CRE luciferase). When the human GLP-1 receptor is activated it results in the production of cAMP, which in turn results in the luciferase protein being expressed. When assay incubation is completed the luciferase substrate (luciferin) is added and the enzyme converts luciferin to oxyluciferin to produce bioluminescence. The luminescence is measured as the readout for the assay.
An increase of the in vitro potency, EC50 value, in the presence of serum albumin would indicate an affinity to serum albumin and represents a method to predict a protracted pharmacokinetic profile of the test substance in animal models.
The cells were cultured at 5% CO2 in Cell Culture Medium. They were aliquoted and stored in liquid nitrogen. Before each assay an aliquot is taken up and washed twice in PBS before being suspended at the desired concentration in the assay specific buffer. For 96-well plates the suspension was made to give a final concentration of 5×10^3 cells/well.
Assay Medium consisted of DMEM w/o phenol red, 10 mM Hepes and 1× Glutamax. The 1% Assay Buffer consisted of 2% ovalbumin, 0.2% Pluronic F-68 and 2% HSA in Assay Medium. The 0% Assay Buffer consisted of 2% ovalbumin and 0.2% Pluronic F-68 in Assay Medium.
1) Cell stocks were thawed in a 37° C. water bath.
2) Cells were washed three times in PBS.
3) The cells were counted and adjusted to 5×10^3 cells/50 μl (1×10^5 cells/ml) in Assay Medium. A 50 μl aliquot of cells was transferred to each well in the assay plate.
4) Stocks of the test compounds and reference compounds were diluted to a concentration of 0.2 pM in 0% Assay Buffer for the 0% HSA CRE luciferase assay and 1% Assay Buffer for the 1% HSA CRE luciferase assay. […] Compounds were tested at the following final concentrations: 1×10^−7 M, 1×10^−8 M; 1×10^−9 M, 1×10^−10 M, 1×10^−11 M, 1×10^−12 M, 1×10^−13 M, and 1×10^−14 M. 6) The assay plate was incubated for 3 h in a 5% CO2 incubator at 37° C. […] 8) A 100 μl aliquot of steadylite plus reagent was added to each well of the assay plate (reagent was light sensitive). 9) Each assay plate was covered with aluminum foil to protect it from light and shaken for 30 min at room temperature. 10) Each assay plate was read in a Packard TopCount NXT instrument. Calculations and Results
The data from the TopCount instrument were transferred to GraphPad Prism software. The software performs a non-linear regression (log(agonist) vs response).
A minimum of two replicates was measured for each sample on separate assay plates. The reported values are averages of the duplicates. For some examples more than one assay was run and in this case the data reported are the averages of the averaged duplicates.

For assay [2], the target named is T2, human GLP-1 receptor (human, UniProt P43220).
Target sequence in this assay (P43220 24-463): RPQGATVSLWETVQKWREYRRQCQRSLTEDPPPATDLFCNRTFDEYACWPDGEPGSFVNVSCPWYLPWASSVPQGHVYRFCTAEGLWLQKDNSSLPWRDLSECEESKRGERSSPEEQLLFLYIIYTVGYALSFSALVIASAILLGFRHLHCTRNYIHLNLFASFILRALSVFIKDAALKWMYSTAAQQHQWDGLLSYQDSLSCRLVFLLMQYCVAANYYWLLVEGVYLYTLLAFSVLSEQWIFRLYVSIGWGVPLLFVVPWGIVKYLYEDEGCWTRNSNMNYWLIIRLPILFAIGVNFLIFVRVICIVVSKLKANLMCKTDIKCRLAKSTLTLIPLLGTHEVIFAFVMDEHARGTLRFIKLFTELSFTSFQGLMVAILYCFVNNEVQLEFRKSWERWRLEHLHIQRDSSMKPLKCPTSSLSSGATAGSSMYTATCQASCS
Assay [3] deals with T2, human GLP-1 receptor. Put plainly: displacement of [125I]-GLP-1-(7-36)NH2 from membranes with human GLP-1 receptor, SPA, high HSA (2.0%). In general terms: Loss of bound radioactivity is the signal in a displacement assay; it reports binding, not function.
Method: Each derivative is added in a series of concentrations to isolated membranes containing the human GLP-1 receptor and displacement of the labelled ligand is monitored. The receptor binding is reported as the concentration at which half of the labelled ligand is displaced from the receptor, the $IC50$ value.
For the receptor binding assay in the presence of low HSA (0.001%) 50 μl of the assay buffer was added to each well of an assay plate. […] For the receptor binding assay in the presence of high HSA (2.0%) 50 μl of the 8% albumin stock was added to each well of an assay plate. […] Cell membrane aliquots were thawed and diluted to their working concentration. Fifty μl were added to each well in the assay plate. […] WGA SPA beads were suspended in assay buffer at 20 mg/ml. The suspension was diluted to 10 mg/ml in assay buffer just prior to addition to the assay plate. Fifty μl were added to each well in the assay plate. […] A 25 μl aliquot was reserved for measuring total counts/well. […] The assay plate was incubated for 2 h at 30° C. […] The assay plate was centrifuged for 10 min. […] The assay plate was read in a Packard TopCount NXT instrument.
[4] abbreviates: EC50/pM (1% HSA), 1% HSA final assay concentration.

T1 sequence (P43220 24-463): as above

For `CC[C@H](C)[C@H](NC(=O)[C@H](Cc1ccccc1)NC(=O)[C@H](CCC(=O)O)NC(=O)[C@H](CCCNC(=N)N)NC(=O)[C@H](C)NC(=O)[C@H](C)NC(=O)[C@H](CCC(N)=O)NC(=O)[C@H](CCC(=O)O)NC(=O)[C@H](CCC(=O)O)NC(=O)[C@H](CC(C)C)NC(=O)[C@H](Cc1ccc(O)cc1)NC(=O)[C@H](CO)NC(=O)[C@H](CO)NC(=O)[C@@H](NC(=O)[C@H](CC(=O)O)NC(=O)[C@H](CO)NC(=O)[C@@H](NC(=O)[C@H](Cc1ccccc1)NC(=O)[C@@H](NC(=O)CNC(=O)[C@H](CCC(=O)O)NC(=O)CNC(=O)[C@@H](N)Cc1c[nH]cn1)[C@@H](C)O)[C@@H](C)O)C(C)C)C(=O)N[C@@H](C)C(=O)N[C@@H](Cc1c[nH]c2ccccc12)C(=O)N[C@@H](CC(C)C)C(=O)N[C@H](C(=O)N[C@@H](CCCNC(=N)N)C(=O)NCC(=O)N[C@@H](CCCCNC(=O)COCCOCCNC(=O)COCCOCCNC(=O)CC[C@H](NC(=O)CCCCCCCCCCOc1ccc(C(=O)O)cc1)C(=O)O)C(=O)N[C@@H](CCCCNC(=O)COCCOCCNC(=O)COCCOCCNC(=O)CC[C@H](NC(=O)CCCCCCCCCCOc1ccc(C(=O)O)cc1)C(=O)O)C(=O)O)C(C)C` [Example 17, N{Epsilon-36}-[2-[2-[2-[[2-[2-[2-[[(4S)-4-carboxy-4-[11-(4-carboxyphenoxy)undecanoylamino]butanoyl]amino]ethoxy]ethoxy]acetyl]amino]ethoxy]ethoxy]acetyl], N{Epsilon-37}-[2-[2-[2-[[2-[2-[2-[[(4S)-4-carboxy-4-[11-(4-carboxyphenoxy)undecanoylamino]butanoyl]amino]ethoxy]ethoxy]acetyl]amino]ethoxy]ethoxy]acetyl]-[Gly8,Glu22,Arg26,Arg34,Lys36,Lys37]-GLP-1-(7-37)-peptide] (H-HGEGTFTSDVSSYLEEQAAREFIAWLVRGK([AEEA-AEEA-γGlu-Undecanoyl(11-OPh(4-COOH))])K([AEEA-AEEA-γGlu-Undecanoyl(11-OPh(4-COOH))])-OH; N-terminus and C-terminus assumed), the EC50 at human GLP-1 receptor [1] (EC50/pM (0% HSA), 0% HSA) was determined as 14 pM; on human GLP-1 receptor [1] (setting [4]) it was 199 pM.
`CC[C@H](C)[C@H](NC(=O)[C@H](Cc1ccccc1)NC(=O)[C@H](CCC(=O)O)NC(=O)[C@H](CCCNC(=N)N)NC(=O)[C@H](C)NC(=O)[C@H](C)NC(=O)[C@H](CCC(N)=O)NC(=O)[C@H](CCC(=O)O)NC(=O)[C@H](CCC(=O)O)NC(=O)[C@H](CC(C)C)NC(=O)[C@H](Cc1ccc(O)cc1)NC(=O)[C@H](CO)NC(=O)[C@H](CO)NC(=O)[C@@H](NC(=O)[C@H](CC(=O)O)NC(=O)[C@H](CO)NC(=O)[C@@H](NC(=O)[C@H](Cc1ccccc1)NC(=O)[C@@H](NC(=O)CNC(=O)[C@H](CCC(=O)O)NC(=O)C(C)(C)NC(=O)[C@@H](N)Cc1c[nH]cn1)[C@@H](C)O)[C@@H](C)O)C(C)C)C(=O)N[C@@H](C)C(=O)N[C@@H](Cc1c[nH]c2ccccc12)C(=O)N[C@@H](CC(C)C)C(=O)N[C@H](C(=O)N[C@@H](CCCNC(=N)N)C(=O)NCC(=O)N[C@@H](CCCCNC(=O)COCCOCCNC(=O)COCCOCCNC(=O)CC[C@H](NC(=O)CC[C@H](NC(=O)CCCCCCCCCCOc1ccc(C(=O)O)cc1)C(=O)O)C(=O)O)C(=O)N[C@@H](CCCCNC(=O)COCCOCCNC(=O)COCCOCCNC(=O)CC[C@H](NC(=O)CC[C@H](NC(=O)CCCCCCCCCCOc1ccc(C(=O)O)cc1)C(=O)O)C(=O)O)C(=O)O)C(C)C` [Example 18]: the EC50 at human GLP-1 receptor [1] (setting [4]) came out at 29 pM.
Regarding `CC[C@H](C)[C@H](NC(=O)[C@H](Cc1ccccc1)NC(=O)[C@H](CCC(=O)O)NC(=O)[C@H](CCCNC(=N)N)NC(=O)[C@H](C)NC(=O)[C@H](C)NC(=O)[C@H](CCC(N)=O)NC(=O)[C@H](CCC(=O)O)NC(=O)[C@H](CCC(=O)O)NC(=O)[C@H](CC(C)C)NC(=O)[C@H](Cc1ccc(O)cc1)NC(=O)[C@H](CO)NC(=O)[C@H](CO)NC(=O)[C@@H](NC(=O)[C@H](CC(=O)O)NC(=O)[C@H](CO)NC(=O)[C@@H](NC(=O)[C@H](Cc1ccccc1)NC(=O)[C@@H](NC(=O)CNC(=O)[C@H](CCC(=O)O)NC(=O)C(C)(C)NC(=O)[C@@H](N)Cc1c[nH]cn1)[C@@H](C)O)[C@@H](C)O)C(C)C)C(=O)N[C@@H](C)C(=O)N[C@@H](Cc1c[nH]c2ccccc12)C(=O)N[C@@H](CC(C)C)C(=O)N[C@H](C(=O)N[C@@H](CCCNC(=N)N)C(=O)NCC(=O)N[C@@H](CCCCNC(=O)COCCOCCNC(=O)COCCOCCNC(=O)CC[C@H](NC(=O)CC[C@H](NC(=O)CCCCCCCCCCCCC(=O)O)C(=O)O)C(=O)O)C(=O)N[C@@H](CCCCNC(=O)COCCOCCNC(=O)COCCOCCNC(=O)CC[C@H](NC(=O)CC[C@H](NC(=O)CCCCCCCCCCCCC(=O)O)C(=O)O)C(=O)O)C(=O)O)C(C)C` [Example 21], the EC50 on human GLP-1 receptor [1] (0% HSA, read-out: EC50/pM (0% HSA)) was 5.6 pM; on human GLP-1 receptor [1] (setting [4]), 13 pM.
For `CC[C@H](C)[C@H](NC(=O)[C@H](Cc1ccccc1)NC(=O)[C@H](CCC(=O)O)NC(=O)[C@H](CCCNC(=N)N)NC(=O)[C@H](C)NC(=O)[C@H](C)NC(=O)[C@H](CCC(N)=O)NC(=O)[C@H](CCC(=O)O)NC(=O)[C@H](CCC(=O)O)NC(=O)[C@H](CC(C)C)NC(=O)[C@H](Cc1ccc(O)cc1)NC(=O)[C@H](CO)NC(=O)[C@H](CO)NC(=O)[C@@H](NC(=O)[C@H](CC(=O)O)NC(=O)[C@H](CO)NC(=O)[C@@H](NC(=O)[C@H](Cc1ccccc1)NC(=O)[C@@H](NC(=O)CNC(=O)[C@H](CCC(=O)O)NC(=O)C(C)(C)NC(=O)[C@@H](N)Cc1c[nH]cn1)[C@@H](C)O)[C@@H](C)O)C(C)C)C(=O)N[C@@H](C)C(=O)N[C@@H](Cc1c[nH]c2ccccc12)C(=O)N[C@@H](CC(C)C)C(=O)N[C@H](C(=O)N[C@@H](CCCNC(=N)N)C(=O)NCC(=O)N[C@@H](CCCCNC(=O)COCCOCCNC(=O)COCCOCCNC(=O)COCCOCCNC(=O)COCCOCCNC(=O)CC[C@H](NC(=O)CCCCCCCCCOc1cccc(C(=O)O)c1)C(=O)O)C(=O)N[C@@H](CCCCNC(=O)COCCOCCNC(=O)COCCOCCNC(=O)COCCOCCNC(=O)COCCOCCNC(=O)CC[C@H](NC(=O)CCCCCCCCCOc1cccc(C(=O)O)c1)C(=O)O)C(=O)O)C(C)C` [Example 22], the EC50 at human GLP-1 receptor [1] (EC50/pM (0% HSA), 0% HSA) was determined as 1.8 pM; at human GLP-1 receptor [1] (setting [4]) it was 7.7 pM.
In the case of `CC[C@H](C)[C@H](NC(=O)[C@H](Cc1ccccc1)NC(=O)[C@H](CCC(=O)O)NC(=O)[C@H](CCCNC(=N)N)NC(=O)[C@H](C)NC(=O)[C@H](C)NC(=O)[C@H](CCC(N)=O)NC(=O)[C@H](CCC(=O)O)NC(=O)[C@H](CCC(=O)O)NC(=O)[C@H](CC(C)C)NC(=O)[C@H](Cc1ccc(O)cc1)NC(=O)[C@H](CO)NC(=O)[C@H](CO)NC(=O)[C@@H](NC(=O)[C@H](CC(=O)O)NC(=O)[C@H](CO)NC(=O)[C@@H](NC(=O)[C@H](Cc1ccccc1)NC(=O)[C@@H](NC(=O)CNC(=O)[C@H](CCC(=O)O)NC(=O)C(C)(C)NC(=O)[C@@H](N)Cc1c[nH]cn1)[C@@H](C)O)[C@@H](C)O)C(C)C)C(=O)N[C@@H](CCC(=O)O)C(=O)N[C@@H](Cc1c[nH]c2ccccc12)C(=O)N[C@@H](CC(C)C)C(=O)N[C@H](C(=O)N[C@@H](CCCNC(=N)N)C(=O)NCC(=O)N[C@@H](CCCCNC(=O)COCCOCCNC(=O)COCCOCCNC(=O)CC[C@H](NC(=O)CCCCCCCCCOc1cccc(C(=O)O)c1)C(=O)O)C(=O)N[C@@H](CCCCNC(=O)COCCOCCNC(=O)COCCOCCNC(=O)CC[C@H](NC(=O)CCCCCCCCCOc1cccc(C(=O)O)c1)C(=O)O)C(=O)O)C(C)C` [Example 27, N{Epsilon-36}-[2-[2-[2-[[2-[2-[2-[[(4S)-4-carboxy-4-[10-(3-carboxyphenoxy)decanoylamino]butanoyl]amino]ethoxy]ethoxy]acetyl]amino]ethoxy]ethoxy]acetyl], N{Epsilon-37}-[2-[2-[2-[[2-[2-[2-[[(4S)-4-carboxy-4-[10-(3-carboxyphenoxy)decanoylamino]butanoyl]amino]ethoxy]ethoxy]acetyl]amino]ethoxy]ethoxy]acetyl]-[Aib8,Glu22,Arg26,Glu30,Arg34,Lys36,Lys37]-GLP-1-(7-37)-peptide], the EC50 on human GLP-1 receptor [1] (EC50/pM (0% HSA), 0% HSA) was 13 pM; at human GLP-1 receptor [1] (setting [4]), 105 pM.
The like results for `CC[C@H](C)[C@H](NC(=O)[C@H](Cc1ccccc1)NC(=O)[C@H](CCC(=O)O)NC(=O)[C@H](CCCNC(=N)N)NC(=O)[C@H](C)NC(=O)[C@H](C)NC(=O)[C@H](CCC(N)=O)NC(=O)[C@H](CCC(=O)O)NC(=O)[C@H](CCC(=O)O)NC(=O)[C@H](CC(C)C)NC(=O)[C@H](Cc1ccc(O)cc1)NC(=O)[C@H](CO)NC(=O)[C@H](CO)NC(=O)[C@@H](NC(=O)[C@H](CC(=O)O)NC(=O)[C@H](CO)NC(=O)[C@@H](NC(=O)[C@H](Cc1ccccc1)NC(=O)[C@@H](NC(=O)CNC(=O)[C@H](CCC(=O)O)NC(=O)C(C)(C)NC(=O)[C@@H](N)Cc1c[nH]cn1)[C@@H](C)O)[C@@H](C)O)C(C)C)C(=O)N[C@@H](CCC(=O)O)C(=O)N[C@@H](Cc1c[nH]c2ccccc12)C(=O)N[C@@H](CC(C)C)C(=O)N[C@H](C(=O)N[C@@H](CCCNC(=N)N)C(=O)NCC(=O)N[C@@H](CCCCNC(=O)COCCOCCNC(=O)COCCOCCNC(=O)COCCOCCNC(=O)COCCOCCNC(=O)CC[C@H](NC(=O)CCCCCCCCCOc1cccc(C(=O)O)c1)C(=O)O)C(=O)N[C@@H](CCCCNC(=O)COCCOCCNC(=O)COCCOCCNC(=O)COCCOCCNC(=O)COCCOCCNC(=O)CC[C@H](NC(=O)CCCCCCCCCOc1cccc(C(=O)O)c1)C(=O)O)C(=O)O)C(C)C` [Example 28] were, in that order, 12 pM and 25 pM.

B1: GLP-1 derivative of Example 18 (peptide)
peptide: H[Aib]EGTFTSDVSSYLEEQAAREFIAWLVRGK([AEEA-AEEA-γGlu-γGlu-Undecanoyl(11-OPh(4-COOH))])K([AEEA-AEEA-γGlu-γGlu-Undecanoyl(11-OPh(4-COOH))])
B1: in the assay with human GLP-1 receptor [2], the EC50/pM (0% HSA) turned out to be 0.8 pM and the EC50/pM (1% HSA) was found to be 29 pM.

B2: GLP-1 derivative of Example 22 (peptide)
peptide: H[Aib]EGTFTSDVSSYLEEQAAREFIAWLVRGK([AEEA-AEEA-AEEA-AEEA-γGlu-Decanoyl(10-O(3-COOH-Ph))])K([AEEA-AEEA-AEEA-AEEA-γGlu-Decanoyl(10-O(3-COOH-Ph))])
The term IC50 denotes the concentration that inhibits the measured activity by half. Read a low IC50 as greater potency in that assay. Turning to B2, the IC50 with human GLP-1 receptor [3] came to 45 nM. In the assay with human GLP-1 receptor [2], this molecule gave an EC50/pM (0% HSA) of 1.8 pM and an EC50/pM (1% HSA) of 7.7 pM.
